Results from publication PMC10066720 (Journal of the American Chemical Society, 2022).

Experiments:
Assay type in all cases: biochemical
TEM-1 β-lactamase A237E [1] = target: T1, TEM-1 β-lactamase A237E (Escherichia coli, UniProt P62593, A235E); experiment: AVB covalent inhibition kinetics; conditions: A237E TEM-1
TEM-1 β-lactamase WT [2] = target: T2, TEM-1 β-lactamase WT (Escherichia coli, UniProt P62593); experiment: AVB covalent inhibition kinetics
TEM-1 β-lactamase A237R [3] = target: T3, TEM-1 β-lactamase A237R (Escherichia coli, UniProt P62593, A235R); experiment: AVB covalent inhibition kinetics; conditions: A237R TEM-1
TEM-1 β-lactamase A237Y [4] = target: T4, TEM-1 β-lactamase A237Y (Escherichia coli, UniProt P62593, A235Y); experiment: AVB covalent inhibition kinetics; conditions: A237Y TEM-1
TEM-1 β-lactamase A237W [5] = target: T5, TEM-1 β-lactamase A237W (Escherichia coli, UniProt P62593, A235W); experiment: AVB covalent inhibition kinetics; conditions: A237W TEM-1
[6] = target: T6, TEM-1 β-lactamase A237Y^e (ester) (Escherichia coli, UniProt P62593, A235Y); experiment: AVB covalent inhibition kinetics; conditions: A237Y^e (ester) TEM-1
[7] = tested on: TEM-1 β-lactamase A237Y^e (ester); experiment: AVB covalent inhibition kinetics; conditions: A237Y^e compared with A237Y
[8] = target: T6, TEM-1 β-lactamase A237Y^e (ester); experiment: PenG acylation kinetics; conditions: A237Y^e (ester) TEM-1; median [68.25% confidence interval]
TEM-1 β-lactamase WT [9] = target: T2, TEM-1 β-lactamase WT; experiment: PenG acylation kinetics
TEM-1 β-lactamase A237W [10] = target: T5, TEM-1 β-lactamase A237W; experiment: PenG acylation kinetics; conditions: A237W TEM-1; median [68.25% confidence interval]
TEM-1 β-lactamase A237E [11] = target: T1, TEM-1 β-lactamase A237E; experiment: PenG acylation kinetics; conditions: A237E TEM-1; median [68.25% confidence interval]
TEM-1 β-lactamase A237R [12] = target: T3, TEM-1 β-lactamase A237R; experiment: PenG acylation kinetics; conditions: A237R TEM-1; median [68.25% confidence interval]
TEM-1 β-lactamase A237Y [13] = target: T4, TEM-1 β-lactamase A237Y; experiment: PenG acylation kinetics; conditions: A237Y TEM-1; median [68.25% confidence interval]

With NC(=O)[C@@H]1CC[C@@H]2CN1C(=O)N2OS(=O)(=O)O [AVB, avibactam] the “AVB carbamylation rate, kcbm” value (TEM-1 β-lactamase A237E [1]) was 4.63 ± 0.23 s⁻¹, the “AVB recyclization rate, krec” value (TEM-1 β-lactamase A237E [1]) was “(8.7 ± 1.5) × 10^−5 s^−1” and the “AVB carbamylation rate, kcbm” value (TEM-1 β-lactamase WT [2]; WT TEM-1) was 23.1 ± 0.2 s⁻¹. The “AVB recyclization rate, krec” value (TEM-1 β-lactamase WT [2]; WT TEM-1) was “(2.3 ± 0.3) × 10^−4 s^−1”, the “enhancement of kcbm by the active site electric field” value (TEM-1 β-lactamase WT [2]; WT TEM·AVB, field −150 MV/cm) was 7.5 orders of magnitude and the “acceleration of recyclization by the active site electric field” value (TEM-1 β-lactamase WT [2]; WT TEM−AVB, field −97 MV/cm) was 4.9 orders of magnitude. The “AVB carbamylation rate, kcbm” value (TEM-1 β-lactamase A237R [3]) was 3.63 ± 0.03 s⁻¹, the “AVB recyclization rate, krec” value (TEM-1 β-lactamase A237R [3]) was “(6.2 ± 0.9) × 10^−4 s^−1” and the “AVB carbamylation rate, kcbm” value (TEM-1 β-lactamase A237Y [4]) was 6.19 ± 0.08 s⁻¹. For the same molecule, the “AVB recyclization rate, krec” value (TEM-1 β-lactamase A237Y [4]) was “(1.7 ± 0.3) × 10^−3 s^−1”, the “AVB carbamylation rate, kcbm” value (TEM-1 β-lactamase A237W [5]) was 3.31 ± 0.05 s⁻¹ and the “AVB recyclization rate, krec” value (TEM-1 β-lactamase A237W [5]) was “(6.7 ± 1.3) × 10^−4 s^−1”. For the same molecule, the “AVB carbamylation rate, kcbm” value [6] was “(1.8 ± 0.1) × 10^−3 s^−1”, the “AVB recyclization rate, krec” value [6] was “(3.4 ± 0.1) × 10^−7 s^−1” and the “decrease in kcbm, factor” value [7] was 3.5 × 10^3. The “decrease in krec, factor” value [7] was 5.0 × 10^3.
With CC1(C)S[C@@H]2[C@H](NC(=O)Cc3ccccc3)C(=O)N2[C@H]1C(=O)O [PenG, penicillin G] the “PenG acylation rate, kac” value [8] was 86.1 [69.2, 97.0] s^−1, the “PenG acylation rate, kac” value (TEM-1 β-lactamase WT [9]; WT TEM-1, median [68.25% confidence interval]) was 4941 [4784, 5086] s^−1 and the “enhancement of kac by the active site electric field” value (TEM-1 β-lactamase WT [9]; WT TEM·PenG, field −171 MV/cm) was 8.6 orders of magnitude. For the same molecule, the “PenG acylation rate, kac” value (TEM-1 β-lactamase A237W [10]) was 1390 [1366, 1415] s^−1, the “PenG acylation rate, kac” value (TEM-1 β-lactamase A237E [11]) was 5857 [5288, 6012] s^−1 and the “PenG acylation rate, kac” value (TEM-1 β-lactamase A237R [12]) was 3265 [3137, 3396] s^−1. The “PenG acylation rate, kac” value (TEM-1 β-lactamase A237Y [13]) was 2838 [2740, 2940] s^−1.
